From publication PMC11124525, “Pharmacokinetic–Pharmacodynamic Correlation Analysis of Rhodiola crenulata in Rats with Myocardial Ischemia” (Pharmaceuticals, 2024)
“Also recorded” adds a separate entry of the source. Read-outs that look alike come from different tables or passages of the source.

Columns and labels:
[1] = PK of five RC components in sham operation administration (SDG, normal) rats after oral RC extract, HPLC-QQQ-MS/MS, DAS; type: in vivo, SD rats; details: rat
Procedure: (§1) The drug concentration in plasma was calculated using the standard curve, and the mean blood concentration was plotted against the time to obtain the mean blood concentration–time curve (Figure 4).
(§2) The rat model of MI was made with Pit. The rats were divided into a sham operation group (SG), sham operation administration group (SDG), model group (MG), and model administration group (MDG) (n = 6 for each group). The MI model was prepared via an intraperitoneal injection (a single time) of Pit in the MG and MDG, with a dosage of 20 U/kg and a volume of 10 mL/kg. At the same time, the rats in the SG and SDG groups were given the same volume of saline in the same way.
(§3) RC extract (2 g/kg, equivalent to human clinical equivalent dose) was given to rats via oral administration in SDG and MDG, and the same volume of normal saline was orally administered to the SG and MG. Rats were fasted for 12 h before the experiment. Blood was collected from the fundus venous plexus at 0, 5, 10, 15, 30, 45 min, 1, 2, 4, 6, 8, 12, and 24 h after in gavage, placed in a centrifuge tube impregnated with heparin sodium, centrifuged at 3500 rpm for 15 min, and then the plasma was collected and divided into two parts. One part was used for biochemical index determination and the other part was used to determine the content of pharmaceutical ingredients in vivo. After the experiment, the rats were sacrificed, and the hearts were placed in paraformaldehyde for histopathological analysis.
(§4) The plasma sample of 100 μL was accurately absorbed, 50 μL internal standard solution (Nimodipine, 500 ng/mL) was added, then 300 μL acetonitrile precipitated protein was added, vortex for 10 min, placed under ultrasound for 3 min, centrifuged at 13,000 rpm for 10 min, and then the supernatant was transferred to another centrifuge tube. It was then concentrated until dry with a rotary evaporator. The residue was redissolved with 100 μL 50% acetonitrile, swirled for 1 min, placed under ultrasonic for 3 min, centrifuged at 13,000 rpm for 10 min, and the supernatant was taken for analysis.
(§5) A validated HPLC-QQQ-MS/MS method was used for the determination of drug-derived components in plasma samples at different time points. The accompanying standard curve was substituted to calculate the content of the compounds to be measured, and then the PK parameters were calculated using DAS software (version 3.2.8), and the blood concentration–time curve was plotted using GraphPad Prism (version 8.0.2). PK behavior was compared between the sham operation and model group, and PK models were established, respectively.

[2] = PK of five RC components in pituitrin-induced myocardial ischemia (MDG) rats after oral RC extract, HPLC-QQQ-MS/MS, DAS; type: in vivo, SD rats; details: for Tmax / AUC(0-t) / AUC(0-inf) / CL/F / Cmax / MRT / MRT inf / Vd/F / half-life: rat
Procedure: as §1, §2, §3, §4, §5

AST = experiment: PK-PD sigmoid-Emax model, PD index AST in MDG rats; type: in vivo, SD rats; parameters: unit not given beside the values
CK = experiment: PK-PD sigmoid-Emax model, PD index CK in MDG rats; type: in vivo, SD rats; parameters: Emax: unit not given beside the values
HBDH = experiment: PK-PD sigmoid-Emax model, PD index HBDH in MDG rats; type: in vivo, SD rats; parameters: unit not given beside the values
SOD = experiment: PK-PD sigmoid-Emax model, PD index SOD in MDG rats; type: in vivo, SD rats; parameters: Ke0: unit not given beside the values
[3] = Procedure: A series concentration mixed reference solution with different concentrations was added to 100 μL plasma, and was treated according to the method under Section 4.6 to obtain the matrix standard curve sample. Samples with concentrations of 400, 100, and 10 ng/mL, respectively, were taken as quality control (QC) samples of high, medium, and low concentrations (HQC, MQC, LQC). The method was validated, including linearity, inter-day/intra-day precision, repeatability, stability, extraction recovery, and matrix effect, according to FDA bioanalytical method validation guidelines.
[4] = cited from earlier work
LDH = experiment: PK-PD sigmoid-Emax model, PD index LDH in MDG rats
Text: Subsequently, we incorporated the PK and PD data to conduct PK-PD modeling through DAS.
Therefore, PK-PD correlation analysis was used in this study, linking dynamic concentration–time processes and effect–time profile relationships [20, 21, 22]. […] The model adopted in this study is the S-Emax model. In the equation, γ means the shape factor in the formula, affecting the slope and determining the steepness of the curve. Emax can provide the maximum response intensity, and ED50 is for evaluating the safety of the drug, which is understood as the amount of the drug that causes 50% of the maximum response intensity.
Plasma creatine kinase (CK), hydroxybutyrate dehydrogenase (HBDH), lactate dehydrogenase (LDH), and superoxide dismutase (SOD) activity was determined using an automatic biochemical analyzer.
The activity of the CK, HBDH, LDH, and SOD of plasma samples collected at different time points was determined using an automatic biochemical analyzer for PD index evaluation. […] Two compartmental methods were used, employing the drug and statistics, which was supplied by the Chinese Pharmacological Society. Then, the efficacy indicators were fitted in the PK-PD model.

[5] = myocardial infarction induced by isoproterenol; cited from earlier work

OC[C@H]1O[C@@H](OCCc2ccc(O)cc2)[C@H](O)[C@@H](O)[C@@H]1O [Salidroside, salidroside]
AUC(0-t) ([1]; SDG rats, oral RC extract 2 g/kg, plasma, mean ± SD, n = 6, read-out: AUC(0−t)): 5.71 ± 0.321 µg·h/mL
AUC(0-inf) ([1]; SDG rats, oral RC extract 2 g/kg, plasma, mean ± SD, n = 6, read-out: AUC(0−∞)): 8.35 ± 2.31 µg·h/mL
CL/F ([1]; SDG rats, oral RC extract 2 g/kg, plasma, mean ± SD, n = 6, read-out: CLz/F (converted)): 0.64 L/h/kg
Cmax ([1]; SDG rats, oral RC extract 2 g/kg, plasma, mean ± SD, n = 6, read-out: Cmax): 1.01 ± 0.0842 µg/mL
MRT ([1]; SDG rats, oral RC extract 2 g/kg, plasma, mean ± SD, n = 6, read-out: MRT(0−)): 7.14 ± 0.51 h
Tmax ([1]; SDG rats, oral RC extract 2 g/kg, plasma, mean ± SD, n = 6, read-out: Tmax): 0.75 ± 0.16 h
Vd/F ([1]; SDG rats, oral RC extract 2 g/kg, plasma, mean ± SD, n = 6, read-out: Vz/F): 15.2 ± 8.77 L/kg
half-life ([1]; SDG rats, oral RC extract 2 g/kg, plasma, mean ± SD, n = 6, read-out: t1/2z (converted)): 19.9 ± 16 h
Change of Cmax in MDG compared with SDG ([2]; MDG vs SDG rats, oral RC extract 2 g/kg): increased significantly; also recorded: significantly increased
Tmax ([2]; SD, plasma, po, 2 g/kg, MDG (myocardial ischemia) rats, oral RC extract 2 g/kg, plasma, mean ± SD, n = 6, read-out: Tmax): 0.83 ± 0.13 h
Tmax ([2]; SD, plasma, po, 2 g/kg, according to the PK results, group not given, oral RC extract, read-out: Tmax (approximate)): ~1 h
AUC(0-t) ([2]; MDG (myocardial ischemia) rats, oral RC extract 2 g/kg, plasma, mean ± SD, n = 6, read-out: AUC(0−t)): 7.79 ± 1.16 µg·h/mL
AUC(0-inf) ([2]; MDG (myocardial ischemia) rats, oral RC extract 2 g/kg, plasma, mean ± SD, n = 6, read-out: AUC(0−∞)): 10 µg·h/mL
CL/F ([2]; MDG (myocardial ischemia) rats, oral RC extract 2 g/kg, plasma, mean ± SD, n = 6, read-out: CLz/F (converted)): 0.52 L/h/kg
Cmax ([2]; MDG (myocardial ischemia) rats, oral RC extract 2 g/kg, plasma, mean ± SD, n = 6, read-out: Cmax): 1.35 ± 0.133 µg/mL
MRT ([2]; MDG (myocardial ischemia) rats, oral RC extract 2 g/kg, plasma, mean ± SD, n = 6, read-out: MRT(0−)): 6.7 ± 0.61 h
MRT inf ([2]; MDG (myocardial ischemia) rats, oral RC extract 2 g/kg, plasma, mean ± SD, n = 6, read-out: MRT(0−∞)): 16.7 ± 9.83 h
Vd/F ([2]; MDG (myocardial ischemia) rats, oral RC extract 2 g/kg, plasma, mean ± SD, n = 6, read-out: Vz/F): 10.7 ± 7.46 L/kg
half-life ([2]; MDG (myocardial ischemia) rats, oral RC extract 2 g/kg, plasma, mean ± SD, n = 6, read-out: t1/2z (converted)): 15.4 ± 11.2 h
Emax (AST): 1091.001
Ke0 (AST): 2.821
Emax (CK): 2288.494
Ke0 (CK): 2.698
Emax (HBDH): 4898.547
Ke0 (HBDH): 0.46
Emax (SOD): 71.79
Ke0 (SOD): 0.025
Stability RE (%) ([3]; rat, 10 ng/mL): 90.22%
Stability RE (%) ([3]; rat, 400 ng/mL): 99.82%
Stability RE (%) ([3]; rat, 48 h, 10 ng/mL): 89.72%
Stability RE (%) ([3]; rat, 48 h, 50 ng/mL): 90.35%
Stability RE (%) ([3]; rat, 48 h, 400 ng/mL): 98.56%
Stability RE (%) ([3]; rat, 10 days, 10 ng/mL): 88.35%
Stability RE (%) ([3]; rat, 10 days, 50 ng/mL): 100.1%
Stability RE (%) ([3]; rat, 10 days, 400 ng/mL): 97.63%
Systemic exposure in hypoxia ([4]; hypoxia): increased significantly
Bioavailability under pathological conditions ([4]; pathological conditions): increased significantly
Emax (LDH): 482.587
Ke0 (LDH): 2.476

O=C(O)c1cc(O)c(O)c(O)c1 [Gallic Acid, gallic acid]
AUC(0-inf) ([1]; SD, in vivo, po, 2 g/kg): 0.55 ± 0.169 µg·h/mL
AUC(0-t) ([1]; SD, in vivo, po, 2 g/kg): 0.475 ± 0.112 µg·h/mL
CL/F ([1]; SD, in vivo, po, 2 g/kg): 9.88 L/h/kg
Cmax ([1]; SD, in vivo, po, 2 g/kg): 0.103 ± 0.0162 µg/mL
MRT ([1]; SD, in vivo, po, 2 g/kg): 4.32 ± 1.26 h
MRT inf ([1]; SD, in vivo, po, 2 g/kg): 8.92 ± 5.98 h
Tmax ([1]; SD, in vivo, po, 2 g/kg): 0.92 ± 0.13 h
Vd/F ([1]; SD, in vivo, po, 2 g/kg): 116 ± 83.1 L/kg
half-life ([1]; SD, in vivo, po, 2 g/kg): 10.2 ± 8.73 h
AUC(0-inf) ([2]; SD, in vivo, po, 2 g/kg): 0.664 ± 0.221 µg·h/mL
AUC(0-t) ([2]; SD, in vivo, po, 2 g/kg): 0.531 ± 0.0609 µg·h/mL
CL/F ([2]; SD, in vivo, po, 2 g/kg): 8.13 L/h/kg
Cmax ([2]; SD, in vivo, po, 2 g/kg): 0.13 ± 0.0199 µg/mL
MRT ([2]; SD, in vivo, po, 2 g/kg): 5.53 ± 0.59 h
MRT inf ([2]; SD, in vivo, po, 2 g/kg): 13.6 ± 10.6 h
Vd/F ([2]; SD, in vivo, po, 2 g/kg): 134 ± 68.9 L/kg
half-life ([2]; SD, in vivo, po, 2 g/kg): 13.8 ± 10.9 h
Tmax ([2]; SD, in vivo, po, 2 g/kg, Tmax): 0.92 ± 0.13 h
Tmax ([2]; SD, in vivo, po, 2 g/kg, Tmax (approximate)): ~1 h
Emax (AST): 1375.057
Ke0 (AST): 2.998
Emax (CK): 2290.745
Ke0 (CK): 1.909
Emax (HBDH): 3540.625
Ke0 (HBDH): 0.439
Emax (SOD): 73.435
Ke0 (SOD): 0.022
Stability RE (%) ([3]; rat plasma, 4 °C, 48 h, spiked 10 ng/mL, n = 6): 100.2%
Stability RE (%) ([3]; rat plasma, 4 °C, 48 h, spiked 50 ng/mL, n = 6): 103.3%
Stability RE (%) ([3]; rat plasma, 4 °C, 48 h, spiked 400 ng/mL, n = 6): 99.11%
Stability RE (%) ([3]; rat plasma, three freeze–thaw cycles, spiked 10 ng/mL, n = 6): 98.58%
Stability RE (%) ([3]; rat plasma, three freeze–thaw cycles, spiked 50 ng/mL, n = 6): 105.6%
Stability RE (%) ([3]; rat plasma, three freeze–thaw cycles, spiked 400 ng/mL, n = 6): 90.26%
Stability RE (%) ([3]; rat plasma, −80 °C, 10 days, spiked 10 ng/mL, n = 6): 99.77%
Stability RE (%) ([3]; rat plasma, −80 °C, 10 days, spiked 400 ng/mL, n = 6): 96.65%
Stability in plasma samples (in words) ([3]; simulated sample storage, handling and analysis (48 h at 4 °C and 10 days in 3 freeze–thaw cycles)): stable
CLZ/F in modeled rats vs normal rats [5]: significantly decreased
T1/2 and MRT in modeled rats vs normal rats [5]: prolonged
Emax (LDH): 580.413
